In ChEMBL document CHEMBL5608223, “Chemical Probes to Investigate Central Nervous System Disorders: Design, Synthesis and Mechanism of Action of a Potent Human Serine Racemase Inhibitor” (ACS Med Chem Lett, 2024):
Values belong to the compound of their own block, whether it stands above or below them. Calls of active or inactive are those of the source. The rule behind the calls is not given here.

Assays:
Serine racemase [1] = biological target: T1, Serine racemase (Mus musculus, UniProt Q9QZX7); experiment: Inhibition of mouse SR using L-Serine as substrate incubated for 2 hrs in presence of PLP by spectrophotometer assay
T1 sequence (Q9QZX7 whole entry): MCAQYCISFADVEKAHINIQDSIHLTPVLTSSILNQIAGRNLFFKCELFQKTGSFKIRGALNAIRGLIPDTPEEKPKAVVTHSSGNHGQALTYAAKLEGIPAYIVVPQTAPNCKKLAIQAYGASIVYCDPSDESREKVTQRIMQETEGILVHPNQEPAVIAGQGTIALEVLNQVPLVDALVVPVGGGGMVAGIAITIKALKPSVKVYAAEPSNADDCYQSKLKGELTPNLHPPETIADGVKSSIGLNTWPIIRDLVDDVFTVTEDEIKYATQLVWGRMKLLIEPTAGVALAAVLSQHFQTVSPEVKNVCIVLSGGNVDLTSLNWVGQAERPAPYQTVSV

[2] = biological target: T2, Phosphoserine aminotransferase (Homo sapiens, UniProt Q9Y617); experiment: Inhibition of human PSAT extracted from Escherichia coli BL21(DE3) cells preincubated with compound followed by L-OPS addition in presence of PLP
T2 sequence (Q9Y617 whole entry): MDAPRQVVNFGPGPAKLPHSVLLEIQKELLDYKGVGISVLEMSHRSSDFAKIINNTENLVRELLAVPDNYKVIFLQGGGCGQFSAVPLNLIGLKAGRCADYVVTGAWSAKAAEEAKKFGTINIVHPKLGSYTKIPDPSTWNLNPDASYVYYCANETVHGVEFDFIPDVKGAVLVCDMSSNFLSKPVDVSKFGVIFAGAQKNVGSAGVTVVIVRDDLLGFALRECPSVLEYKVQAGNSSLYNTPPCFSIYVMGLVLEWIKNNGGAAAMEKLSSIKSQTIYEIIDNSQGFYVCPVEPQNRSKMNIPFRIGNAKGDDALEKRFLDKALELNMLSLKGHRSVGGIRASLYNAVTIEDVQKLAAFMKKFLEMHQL

[3] = biological target: T3, Serine racemase (Homo sapiens) (UniProt Q9GZT4); experiment: Inhibition of recombinant hexa-His tagged human SR extracted from Escherichia coli BL21 CodonPlusR (DE3)-RIL cells at 2 mM preincubated with compound followed by L-serine addition and measured after 10 mins
T3 sequence (whole entry): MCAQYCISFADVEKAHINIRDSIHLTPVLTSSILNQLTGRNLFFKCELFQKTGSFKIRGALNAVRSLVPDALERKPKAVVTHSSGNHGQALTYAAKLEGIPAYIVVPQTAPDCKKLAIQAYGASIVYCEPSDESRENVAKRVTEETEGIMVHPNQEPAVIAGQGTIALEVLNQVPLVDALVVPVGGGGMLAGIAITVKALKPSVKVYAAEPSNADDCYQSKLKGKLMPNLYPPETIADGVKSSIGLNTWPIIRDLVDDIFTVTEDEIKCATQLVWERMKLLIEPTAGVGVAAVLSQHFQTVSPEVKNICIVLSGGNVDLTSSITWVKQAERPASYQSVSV

Serine racemase [4] = biological target: T4, Serine racemase (Homo sapiens, UniProt Q9GZT4); experiment: Inhibition of human SR extracted from Escherichia coli assessed as beta-eliminase activity using L-Ser as substrate by spectrophotometer assay
T4 sequence (Q9GZT4 whole entry): T3 sequence (whole entry)

Structure (SMILES): N[C@H]1CONC1=O [LEVCYCLOSERINE]
IC50 (Serine racemase [1]): 2270 µM

Structure (SMILES): O=C(O)CC(=O)O [MALONIC ACID]
IC50 (Serine racemase [4]): 71 µM

Structure (SMILES): O=C(O)[C@H]1C[C@H]1C(=O)O
IC50 (Serine racemase [4]): 3000 µM

Next, values leading:

IC50 [2]: 2.2 µM
Structure (SMILES): NOC(Cc1ccc(-c2ccccc2)cc1)C(=O)O (stereo not given)

Activity [3]: inactive
Structure (SMILES): N[C@@H](Cc1ccccc1)C(=O)O
